Measurements reported in patent US8350065B2, “5,6-dimethyl xanthone-4-acetic acid derivatives and method of preparing the same” (Grand Pharma (China) Co., Ltd., priority 2008, dated 2013).

Test system: Clone No. 38 tumor
Experiment: Anti-tumor effect by short-term tissue assay in tumor-bearing mice (titled cytotoxic activity)
Type: in vivo
Conditions: mice with Clone No. 38 tumor; for OD (minimum dose of brine injection administered by peritoneal injection and causing activity): peritoneal injection in brine, dose raised in 1.5-fold steps to maximum tolerated dose; for Activity (necrosis of tumor cross section): peritoneal injection, short-term tissue assay
Protocol: Cytotoxic activity of the compounds represented by formula (I) was measured by the following method.
Clone No. 38 tumor was obtained from Mason Research Inc. and injected into experimental mice. […] Each dosage level was measured independently at least two times (commonly, three times). For each measurement, each group had five mice. The anti-tumor effect of the compounds was measured through short-term tissue assay.
OD refers to the minimum dose (mg/Kg) of brine injection administered by peritoneal injection and causing activity; ++ refers to >90% of cross section is necrotic.

SMILES	OD (minimum dose of brine injection administered by peritoneal injection and causing activity)	Activity (necrosis of tumor cross section)
Cc1ccc2c(=O)c3cccc(CC(=O)O)c3oc2c1C [NO 1, 5,6-dimethyl xanthone-4-acetic acid]	30 mg/kg	++ (>90% of cross section is necrotic)
Cc1cc(CC(=O)O)c2oc3c(C)c(C)ccc3c(=O)c2c1 [NO 2, 2,5,6-trimethyl xanthone-4-acetic acid]	25 mg/kg	++ (>90% of cross section is necrotic)
Cc1cc2c(=O)c3cccc(CC(=O)O)c3oc2c(C)c1C [NO 3, 5,6,7-trimethylxanthone-4-acetic acid]	30 mg/kg	++ (>90% of cross section is necrotic)
Cc1cc(C)c2c(=O)c3cccc(CC(=O)O)c3oc2c1C [NO 4, 5,6,8-trimethylxanthone-4-acetic acid]	30 mg/kg	++ (>90% of cross section is necrotic)
